{"source": "ChEMBL document CHEMBL1201862", "about": "“PubChem BioAssay data set” (2004)", "key": {"[1]": {"experiment": "cells"}, "[2]": {"experiment": "Late stage counterscreen for inhibitors of Trypanosoma brucei methionyl tRNA synthetase (MetRS): Luminescence-based cell-based high throughput dose response assay to identify compounds that are cytotoxic to Jurkat human T lymphocyte cells.", "type": "functional"}, "[3]": {"experiment": "CFTR ΔF508 corrector activity in bronchial cells, dose response, human bronchial epithelial cells, plate reader, cherry-pick, two tests (AID 743267)", "type": "functional, cell-based"}, "[4]": {"biological_target": "Protein disulfide-isomerase A6 (Homo sapiens, UniProt Q15084)", "sequence (Q15084 whole entry)": "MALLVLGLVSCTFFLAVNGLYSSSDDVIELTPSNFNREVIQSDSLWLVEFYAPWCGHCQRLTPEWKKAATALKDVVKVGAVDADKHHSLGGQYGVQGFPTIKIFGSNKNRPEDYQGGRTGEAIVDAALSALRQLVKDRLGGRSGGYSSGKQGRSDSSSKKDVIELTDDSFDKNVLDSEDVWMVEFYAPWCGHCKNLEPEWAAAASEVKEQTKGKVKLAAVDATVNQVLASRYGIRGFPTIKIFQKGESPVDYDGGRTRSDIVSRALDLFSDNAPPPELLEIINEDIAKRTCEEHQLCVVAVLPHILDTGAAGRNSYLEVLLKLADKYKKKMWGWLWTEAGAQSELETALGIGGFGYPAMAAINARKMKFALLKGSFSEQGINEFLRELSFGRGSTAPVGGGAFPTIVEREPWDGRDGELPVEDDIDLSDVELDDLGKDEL", "experiment": "inhibitors of ERp5-mediated insulin aggregation, dose response, biochemical, turbidity, absorbance 650 nm, cherry-picked samples (AID 720566)"}, "[5]": {"biological_target": "T1, Runt-related transcription factor 1/Core-binding factor subunit beta (Homo sapiens, UniProt Q01196+Q13951)", "T1 sequence (Q01196 whole entry, the tested form may be a part)": "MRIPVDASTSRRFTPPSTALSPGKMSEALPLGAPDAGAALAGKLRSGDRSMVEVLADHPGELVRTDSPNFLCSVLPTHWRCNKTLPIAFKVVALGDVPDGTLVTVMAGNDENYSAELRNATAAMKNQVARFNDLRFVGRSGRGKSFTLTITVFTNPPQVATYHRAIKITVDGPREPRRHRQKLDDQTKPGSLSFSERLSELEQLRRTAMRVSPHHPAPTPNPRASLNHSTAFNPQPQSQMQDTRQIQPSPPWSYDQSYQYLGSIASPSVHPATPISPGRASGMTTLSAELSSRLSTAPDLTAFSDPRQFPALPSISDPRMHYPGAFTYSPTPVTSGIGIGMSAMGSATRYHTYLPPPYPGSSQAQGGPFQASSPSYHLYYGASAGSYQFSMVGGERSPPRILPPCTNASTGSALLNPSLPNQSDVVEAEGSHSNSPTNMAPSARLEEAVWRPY", "T1 sequence (Q13951 whole entry, the tested form may be a part)": "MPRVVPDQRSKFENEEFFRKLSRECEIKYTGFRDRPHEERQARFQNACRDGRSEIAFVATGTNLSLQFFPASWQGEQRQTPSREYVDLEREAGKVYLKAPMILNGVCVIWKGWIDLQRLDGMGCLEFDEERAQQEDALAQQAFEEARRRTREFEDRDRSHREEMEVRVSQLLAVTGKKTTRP", "experiment": "inhibitors of RUNX1 Runt–CBFb-SMMHC binding, primary screen, biochemical, FRET, Cerulean-Runt, Venus-CBFb-SMMHC, uHTS (AID 1434);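 also: partner is the CBFb-SMMHC leukemia fusion protein rather than wild-type CBFb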", "type": "protein assay"}, "[6]": {"biological_target": "T1, Runt-related transcription factor 1/Core-binding factor subunit beta", "experiment": "inhibitors of RUNX1 Runt–CBFb-SMMHC binding, biochemical, TR-FRET (AID 1438)", "type": "protein assay"}, "[7]": {"experiment": "cells", "details": "A549"}, "[8]": {"experiment": "cells", "details": "HEK293"}, "[9]": {"experiment": "inhibitors of intracellular T. cruzi replication, confirmation, NIH3T3 host cells, beta-gal luminescence (AID 2044);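 also: luminescent beta-galactosidase reporter signal from transgenic T. cruzi replicating inside host cells; inhibitors lower the luminescence signal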", "type": "functional, cell-based"}, "[10]": {"experiment": "cytotoxicity toward NIH3T3 fibroblasts, dose response, counter-screen, cell-based, ATP luminescence, mouse fibroblasts (AID 2010);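 also: cells exposed to compound for about 90 hours before reading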", "type": "functional"}, "[11]": {"experiment": "HepG2 cell cytotoxicity, dose response, cytotoxicity control, ATP luminescence, cherry-pick, set 6 (AID 1053125)", "type": "functional, cell-based"}, "[12]": {"biological_target": "Beta-galactosidase (Escherichia coli, UniProt Q8VNN2)", "sequence (Q8VNN2 whole entry)": "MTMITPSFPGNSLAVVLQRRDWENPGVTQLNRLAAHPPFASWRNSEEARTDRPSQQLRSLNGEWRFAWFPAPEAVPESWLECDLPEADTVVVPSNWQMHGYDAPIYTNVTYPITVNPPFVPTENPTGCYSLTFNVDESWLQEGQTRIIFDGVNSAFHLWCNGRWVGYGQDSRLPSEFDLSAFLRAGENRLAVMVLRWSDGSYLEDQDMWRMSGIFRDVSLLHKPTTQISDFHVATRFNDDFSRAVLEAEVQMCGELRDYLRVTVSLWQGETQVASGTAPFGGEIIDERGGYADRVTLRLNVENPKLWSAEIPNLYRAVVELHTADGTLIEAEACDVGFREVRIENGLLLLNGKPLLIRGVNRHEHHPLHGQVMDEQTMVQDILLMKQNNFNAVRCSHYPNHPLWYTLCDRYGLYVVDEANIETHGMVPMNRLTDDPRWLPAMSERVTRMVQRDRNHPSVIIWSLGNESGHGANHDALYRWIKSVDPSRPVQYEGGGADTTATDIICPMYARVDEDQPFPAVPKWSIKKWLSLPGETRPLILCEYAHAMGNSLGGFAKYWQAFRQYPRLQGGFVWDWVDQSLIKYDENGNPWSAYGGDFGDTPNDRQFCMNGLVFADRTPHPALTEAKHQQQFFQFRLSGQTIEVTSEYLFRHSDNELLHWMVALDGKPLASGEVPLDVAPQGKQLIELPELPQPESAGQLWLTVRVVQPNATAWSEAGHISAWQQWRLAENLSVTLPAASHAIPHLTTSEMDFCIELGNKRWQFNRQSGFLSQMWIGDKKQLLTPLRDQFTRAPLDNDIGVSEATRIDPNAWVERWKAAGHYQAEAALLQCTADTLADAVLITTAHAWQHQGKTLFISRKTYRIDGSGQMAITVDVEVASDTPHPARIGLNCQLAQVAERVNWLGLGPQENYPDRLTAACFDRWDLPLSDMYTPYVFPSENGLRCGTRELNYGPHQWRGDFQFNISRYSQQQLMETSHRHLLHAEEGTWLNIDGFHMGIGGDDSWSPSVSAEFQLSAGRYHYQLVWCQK", "experiment": "beta-galactosidase enzyme inhibitors and activators, dose response, artefact control for CCR6 antagonist project, biochemical, E. coli enzyme, set 3 (AID 504712)", "type": "functional"}, "[13]": {"biological_target": "Cysteine protease ATG4B (Homo sapiens, UniProt Q9Y4P1)", "sequence (Q9Y4P1 whole entry)": "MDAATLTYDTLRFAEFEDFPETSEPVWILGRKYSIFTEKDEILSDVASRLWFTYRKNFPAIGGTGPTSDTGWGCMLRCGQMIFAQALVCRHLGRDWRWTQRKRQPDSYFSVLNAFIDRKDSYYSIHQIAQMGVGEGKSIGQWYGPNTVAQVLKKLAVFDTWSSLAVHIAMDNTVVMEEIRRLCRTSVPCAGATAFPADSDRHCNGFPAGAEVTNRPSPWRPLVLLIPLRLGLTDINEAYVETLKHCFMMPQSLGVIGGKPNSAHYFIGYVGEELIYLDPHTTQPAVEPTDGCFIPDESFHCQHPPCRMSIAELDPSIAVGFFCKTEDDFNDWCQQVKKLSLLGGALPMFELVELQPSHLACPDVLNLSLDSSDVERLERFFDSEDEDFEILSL", "type": "functional"}, "[14]": {"biological_target": "Heat shock protein HSP 90-alpha (Homo sapiens, UniProt P07900)", "type": "functional, organism-based"}, "[15]": {"biological_target": "Phospholipase A2 (Homo sapiens, UniProt P04054)", "sequence (P04054 whole entry)": "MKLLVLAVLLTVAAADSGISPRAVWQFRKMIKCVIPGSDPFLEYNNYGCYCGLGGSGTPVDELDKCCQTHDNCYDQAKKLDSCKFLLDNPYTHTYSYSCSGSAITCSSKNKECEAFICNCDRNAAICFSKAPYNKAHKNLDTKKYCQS", "type": "functional"}, "[16]": {"system": "Vero", "experiment": "Vero cell cytotoxicity, cytotoxicity control for flavivirus capping enzyme inhibitors (AID 588742)", "type": "functional", "details": "Chlorocebus sabaeus"}, "[17]": {"biological_target": "Genome polyprotein (dengue virus type 2, UniProt P29990)", "experiment": "Dengue-2 NS5 methyltransferase inhibitors, primary screen, biochemical, confirmation dose response (AID 588689)", "type": "functional"}, "[18]": {"experiment": "Fluorescence-based cell-based high throughput dose response assay for inhibitors of the interaction of nucleotide-binding oligomerization domain containing 2 (NOD2) and the receptor-interacting serine-threonine kinase 2 (RIPK2).", "type": "functional", "details": "Homo sapiens"}, "[19]": {"biological_target": "T2, Sentrin-specific protease 8 (Homo sapiens, UniProt Q96LD8)", "T2 sequence (Q96LD8 whole entry)": "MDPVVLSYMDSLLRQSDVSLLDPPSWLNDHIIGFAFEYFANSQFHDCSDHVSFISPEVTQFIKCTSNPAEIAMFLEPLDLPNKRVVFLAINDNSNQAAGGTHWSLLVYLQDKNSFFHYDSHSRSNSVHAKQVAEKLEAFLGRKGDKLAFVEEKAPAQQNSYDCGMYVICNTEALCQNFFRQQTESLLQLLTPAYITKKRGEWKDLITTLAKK", "type": "functional"}, "[20]": {"experiment": "HeLa cell cytotoxicity, dose response, cytotoxicity control for MgcRacGAP inhibitor project (AID 624300)", "type": "functional"}, "[21]": {"biological_target": "T2, Sentrin-specific protease 8", "type": "functional", "remark": "listed apart in the source"}, "[22]": {"biological_target": "T3, Rac GTPase-activating protein 1 (Homo sapiens, UniProt Q9H0H5)", "T3 sequence (Q9H0H5 whole entry)": "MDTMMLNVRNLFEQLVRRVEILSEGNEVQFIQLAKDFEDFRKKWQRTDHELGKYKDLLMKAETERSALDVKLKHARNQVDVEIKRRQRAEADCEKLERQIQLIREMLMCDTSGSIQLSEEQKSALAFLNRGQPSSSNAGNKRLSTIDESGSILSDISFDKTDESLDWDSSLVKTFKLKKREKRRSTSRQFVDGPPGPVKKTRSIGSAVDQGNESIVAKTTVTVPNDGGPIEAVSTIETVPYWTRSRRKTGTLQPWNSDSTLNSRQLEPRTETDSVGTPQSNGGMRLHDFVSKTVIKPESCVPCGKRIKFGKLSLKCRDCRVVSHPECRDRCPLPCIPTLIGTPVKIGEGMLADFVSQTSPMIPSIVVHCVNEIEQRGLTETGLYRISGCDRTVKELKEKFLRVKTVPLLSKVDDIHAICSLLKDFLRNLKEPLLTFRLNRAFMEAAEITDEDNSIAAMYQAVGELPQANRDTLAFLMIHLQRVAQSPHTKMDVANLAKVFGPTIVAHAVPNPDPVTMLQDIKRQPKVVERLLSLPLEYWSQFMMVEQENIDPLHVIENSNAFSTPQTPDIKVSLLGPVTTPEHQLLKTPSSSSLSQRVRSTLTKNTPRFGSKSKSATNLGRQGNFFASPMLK", "experiment": "MgcRacGAP GTPase-activating activity inhibitors, confirmation, biochemical, ADP Hunter fluorescence, primary and confirmatory (AID 624330)", "type": "functional"}, "[23]": {"biological_target": "T4, Histone-lysine N-methyltransferase NSD2 (Homo sapiens, UniProt O96028)", "T4 sequence (O96028 whole entry)": "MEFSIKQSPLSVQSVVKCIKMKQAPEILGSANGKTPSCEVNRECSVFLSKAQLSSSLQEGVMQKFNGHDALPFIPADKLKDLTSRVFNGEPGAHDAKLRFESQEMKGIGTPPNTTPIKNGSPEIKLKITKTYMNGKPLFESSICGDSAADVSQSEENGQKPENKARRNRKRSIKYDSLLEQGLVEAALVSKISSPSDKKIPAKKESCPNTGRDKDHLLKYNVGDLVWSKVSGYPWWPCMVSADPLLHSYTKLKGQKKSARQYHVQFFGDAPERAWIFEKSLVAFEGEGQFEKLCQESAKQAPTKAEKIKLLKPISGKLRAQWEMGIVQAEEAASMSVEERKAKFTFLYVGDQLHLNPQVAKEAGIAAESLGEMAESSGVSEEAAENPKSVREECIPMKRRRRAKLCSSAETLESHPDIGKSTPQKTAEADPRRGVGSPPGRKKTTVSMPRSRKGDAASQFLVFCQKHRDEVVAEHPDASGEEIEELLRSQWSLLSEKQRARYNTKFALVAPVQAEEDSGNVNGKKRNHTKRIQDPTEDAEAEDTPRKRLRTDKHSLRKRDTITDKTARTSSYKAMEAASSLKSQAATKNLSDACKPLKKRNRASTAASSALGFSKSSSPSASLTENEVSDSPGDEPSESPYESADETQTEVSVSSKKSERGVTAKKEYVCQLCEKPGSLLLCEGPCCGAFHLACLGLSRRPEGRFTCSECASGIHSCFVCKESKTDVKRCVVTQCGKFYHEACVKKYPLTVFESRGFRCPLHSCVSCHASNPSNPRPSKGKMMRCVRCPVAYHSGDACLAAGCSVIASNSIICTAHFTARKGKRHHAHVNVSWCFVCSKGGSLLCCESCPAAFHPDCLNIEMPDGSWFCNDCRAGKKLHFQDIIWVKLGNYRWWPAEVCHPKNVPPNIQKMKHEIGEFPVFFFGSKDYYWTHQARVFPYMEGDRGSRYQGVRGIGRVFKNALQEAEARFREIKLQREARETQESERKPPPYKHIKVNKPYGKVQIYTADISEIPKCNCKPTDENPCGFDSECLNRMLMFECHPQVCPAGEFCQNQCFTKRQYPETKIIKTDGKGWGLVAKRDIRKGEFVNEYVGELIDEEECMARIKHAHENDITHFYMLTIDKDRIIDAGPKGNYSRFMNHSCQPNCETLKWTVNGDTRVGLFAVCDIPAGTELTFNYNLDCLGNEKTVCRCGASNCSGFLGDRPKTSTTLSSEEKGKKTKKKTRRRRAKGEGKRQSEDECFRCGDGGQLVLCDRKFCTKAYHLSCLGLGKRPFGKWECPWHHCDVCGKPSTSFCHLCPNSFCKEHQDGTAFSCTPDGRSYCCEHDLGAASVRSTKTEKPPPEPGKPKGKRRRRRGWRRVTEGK", "type": "biochemical"}, "[24]": {"biological_target": "Tyrosyl-DNA phosphodiesterase 2 (Homo sapiens, UniProt O95551)", "sequence (O95551 whole entry)": "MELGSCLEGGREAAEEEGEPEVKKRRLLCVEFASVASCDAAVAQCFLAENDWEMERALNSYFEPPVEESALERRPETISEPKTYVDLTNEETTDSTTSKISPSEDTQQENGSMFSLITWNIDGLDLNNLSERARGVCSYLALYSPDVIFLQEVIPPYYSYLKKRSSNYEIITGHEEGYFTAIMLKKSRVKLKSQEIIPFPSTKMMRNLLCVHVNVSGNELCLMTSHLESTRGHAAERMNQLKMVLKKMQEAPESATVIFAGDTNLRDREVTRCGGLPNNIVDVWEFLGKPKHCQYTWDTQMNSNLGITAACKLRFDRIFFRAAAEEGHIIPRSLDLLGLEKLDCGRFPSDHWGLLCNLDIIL", "experiment": "human TDP2 enzyme inhibitors, dose response, biochemical, epi absorbance, IC50 (AID 743297)"}, "[25]": {"biological_target": "1-phosphatidylinositol 4,5-bisphosphate phosphodiesterase gamma-1 (Homo sapiens, UniProt P19174)", "sequence (P19174 whole entry)": "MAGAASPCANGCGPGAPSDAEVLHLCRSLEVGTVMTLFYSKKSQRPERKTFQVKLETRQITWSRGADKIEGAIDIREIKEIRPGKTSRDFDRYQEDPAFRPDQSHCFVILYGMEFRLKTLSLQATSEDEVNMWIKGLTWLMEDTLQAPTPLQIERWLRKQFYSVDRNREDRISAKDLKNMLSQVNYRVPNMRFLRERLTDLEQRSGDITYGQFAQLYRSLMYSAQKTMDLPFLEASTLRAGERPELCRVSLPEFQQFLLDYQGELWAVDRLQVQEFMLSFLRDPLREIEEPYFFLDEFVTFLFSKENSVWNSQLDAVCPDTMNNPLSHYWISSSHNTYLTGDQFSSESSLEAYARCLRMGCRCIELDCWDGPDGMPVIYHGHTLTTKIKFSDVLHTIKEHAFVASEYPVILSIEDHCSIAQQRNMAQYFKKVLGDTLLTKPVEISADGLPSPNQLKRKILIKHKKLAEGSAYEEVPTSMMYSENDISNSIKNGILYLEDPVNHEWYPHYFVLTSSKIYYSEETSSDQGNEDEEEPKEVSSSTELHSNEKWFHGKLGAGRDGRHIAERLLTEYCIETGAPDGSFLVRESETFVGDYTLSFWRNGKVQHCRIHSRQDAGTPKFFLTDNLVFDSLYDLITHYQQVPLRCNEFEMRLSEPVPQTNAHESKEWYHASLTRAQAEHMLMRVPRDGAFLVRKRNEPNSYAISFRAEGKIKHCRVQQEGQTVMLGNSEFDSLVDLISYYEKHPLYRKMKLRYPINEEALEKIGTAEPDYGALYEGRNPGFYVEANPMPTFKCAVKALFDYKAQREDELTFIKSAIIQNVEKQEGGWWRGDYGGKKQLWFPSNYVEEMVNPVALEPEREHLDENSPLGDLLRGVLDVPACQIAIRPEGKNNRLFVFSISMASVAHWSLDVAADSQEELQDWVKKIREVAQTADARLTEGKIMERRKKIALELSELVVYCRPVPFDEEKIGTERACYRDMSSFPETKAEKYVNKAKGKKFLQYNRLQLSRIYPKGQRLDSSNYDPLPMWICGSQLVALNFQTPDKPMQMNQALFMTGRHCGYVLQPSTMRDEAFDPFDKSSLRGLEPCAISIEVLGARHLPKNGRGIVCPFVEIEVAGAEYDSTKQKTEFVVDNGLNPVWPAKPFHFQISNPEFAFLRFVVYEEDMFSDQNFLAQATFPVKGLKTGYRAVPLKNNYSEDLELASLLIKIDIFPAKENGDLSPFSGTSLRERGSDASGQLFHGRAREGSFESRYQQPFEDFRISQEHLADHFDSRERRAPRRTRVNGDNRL", "experiment": "Counterscreen for inhibitors of phospholipase C isozymes (PLC-B3): Fluorescence-based biochemical high throughput dose response assay to identify inhibitors of phospholipase C isozymes (PLC-gamma1)."}, "[26]": {"biological_target": "1-phosphatidylinositol 4,5-bisphosphate phosphodiesterase beta-3 (Homo sapiens, UniProt Q01970)", "experiment": "Fluorescence-based biochemical high throughput dose response assay to identify inhibitors of phospholipase C isozymes (PLC-B3)."}, "[27]": {"biological_target": "Paired box protein Pax-8 (Homo sapiens, UniProt Q06710)", "sequence (Q06710 whole entry)": "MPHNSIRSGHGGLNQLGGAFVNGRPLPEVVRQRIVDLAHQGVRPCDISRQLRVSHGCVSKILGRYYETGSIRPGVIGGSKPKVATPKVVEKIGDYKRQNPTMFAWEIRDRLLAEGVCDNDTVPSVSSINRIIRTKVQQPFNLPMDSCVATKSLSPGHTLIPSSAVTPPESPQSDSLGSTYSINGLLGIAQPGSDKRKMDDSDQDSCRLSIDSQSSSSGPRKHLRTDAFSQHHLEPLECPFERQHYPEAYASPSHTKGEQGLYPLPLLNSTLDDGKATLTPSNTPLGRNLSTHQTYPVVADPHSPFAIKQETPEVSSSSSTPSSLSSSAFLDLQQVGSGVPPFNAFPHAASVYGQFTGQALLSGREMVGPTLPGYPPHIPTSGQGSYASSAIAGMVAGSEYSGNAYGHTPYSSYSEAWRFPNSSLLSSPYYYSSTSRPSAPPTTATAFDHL", "experiment": "inhibitors of PAX8-driven TPO luciferase reporter, dose response, RMG-I cells, cherry-pick (AID 687027);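 also: luciferase reporter driven by Pax8 target thyroperoxidase promoter measured by SteadyGlo luminescence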", "type": "functional, cell-based"}, "[28]": {"experiment": "NIH:OVCAR-3 ovarian cancer cell cytotoxicity, dose response, PAX8 inhibitor project, plate reader, dry powder samples (AID 743044)", "type": "functional, cell-based"}, "[29]": {"experiment": "non-specific cell cytotoxicity, dose response, cytotoxicity control for PAX8 inhibitor project, plate reader, dry powder samples (AID 743021)", "type": "functional, cell-based"}, "[30]": {"experiment": "cytotoxicity in OVCAR8 ovarian cancer cells, dose response, PAX8 project, cell-based, plate reader, dry powder samples (AID 743197)", "type": "functional", "details": "OVCAR-8"}}, "note": "The source made the active and inactive calls.", "data": [{"smiles": "O=C(O)c1ccc(-c2ccc(/C=C3\\NC(=O)N(Cc4ccc(Cl)cc4)C3=O)o2)cc1", "values": [{"measurement": "AC50", "setting": "[1]", "result": "1.78 µM (active)"}]}, {"smiles": "O=C(CC=NOCc1ccc([N+](=O)[O-])cc1)Nc1ccc(Br)cc1", "values": [{"measurement": "IC50", "setting": "[2]", "result": "> 83.3 µM (inactive)"}]}, {"smiles": "CCOC(=O)c1[nH]c(C)c(C(=O)C2=C(O)C(=O)N(CCCN3CCOCC3)C2c2cccs2)c1C", "note": "(stereo unspecified)", "values": [{"measurement": "AC50", "setting": "[3]", "result": "19.4 µM (active)"}]}, {"smiles": "Cc1cc(OCCCCOc2ccc(S(N)(=O)=O)c(C)c2)ccc1S(N)(=O)=O", "values": [{"measurement": "AC50", "setting": "[4]", "result": "45.5 µM (active)"}]}, {"smiles": "COc1ccc(C2c3ccc(O)cc3Oc3ncn4nc(-c5ccccn5)nc4c32)cc1", "note": "(stereo unspecified)", "values": [{"measurement": "IC50", "setting": "[5]", "result": "22.9 µM (active)"}, {"measurement": "IC50", "setting": "[6]", "result": "> 100 µM (inactive)"}, {"measurement": "AC50", "setting": "[7]", "result": "> 52 µM (inactive)"}, {"measurement": "AC50", "setting": "[8]", "result": "> 24 µM (inactive)"}]}, {"smiles": "N#Cc1c2ccc(O)cc2n2ccccc12", "values": [{"measurement": "EC50", "setting": "[9]", "result": "680 nM (active)"}, {"measurement": "EC50", "setting": "[10]", "result": "> 60 µM (not active)"}, {"measurement": "AC50", "setting": "[11]", "result": "> 52 µM (inactive)"}, {"measurement": "AC50", "setting": "[8]", "result": "> 52 µM (inactive)"}]}, {"smiles": "O=C1C(=C(I)I)c2ccccc2-c2ccccc21", "values": [{"measurement": "IC50", "setting": "[12]", "result": "> 66.6 µM (inactive)"}, {"measurement": "IC50", "setting": "[13]", "result": "7.13 µM (active)"}, {"measurement": "AC50", "setting": "[14]", "result": "5.65 µM (active)"}, {"measurement": "IC50", "setting": "[15]", "result": "58.1 µM (inactive)"}, {"measurement": "CC50", "setting": "[16]", "result": "15.3 µM (active)"}, {"measurement": "IC50", "setting": "[17]", "result": "29 µM (active)"}, {"measurement": "IC50", "setting": "[18]", "result": "1.2 µM (active)"}, {"measurement": "IC50", "setting": "[19]", "result": "> 100 µM (inactive)"}, {"measurement": "CC50", "setting": "[20]", "result": "27.4 µM (active)"}, {"measurement": "IC50", "setting": "[21]", "result": "1.74 µM (active)"}, {"measurement": "IC50", "setting": "[22]", "result": "19.8 µM (active)"}, {"measurement": "AC50", "setting": "[23]", "result": "2.24 µM (active)"}, {"measurement": "IC50", "setting": "[24]", "result": "8.29 µM (active)"}, {"measurement": "IC50", "setting": "[25]", "result": "> 122 µM (inactive)"}, {"measurement": "IC50", "setting": "[26]", "result": "> 122 µM (inactive)"}]}, {"smiles": "C[C@@H]1CCCCO[C@@H](CN(C)C(=O)c2ccccc2)[C@@H](C)CN([C@@H](C)CO)C(=O)c2cc(NC(=O)Nc3ccc(C(F)(F)F)cc3)ccc2O1", "values": [{"measurement": "AC50", "setting": "[27]", "result": "8.77 µM (active)"}, {"measurement": "AC50", "setting": "[28]", "result": "7.75 µM (active)"}, {"measurement": "AC50", "setting": "[29]", "result": "44.3 µM (active)"}, {"measurement": "AC50", "setting": "[30]", "result": "> 70 µM (inactive)"}]}]}
